According to patent publication US6727264B1 (Synaptic Pharmaceutical Corporation, priority 2001, dated 2004):
Read-outs that look alike come from different tables or passages of the source.

Target: rat MCH-1 (Rattus norvegicus, UniProt P97639)
Assay: Radioligand binding assay at cloned rat MCH1 receptor ([3H] Compound A)
Set-up: host or cells: Peak rapid 293 (Peakr293) cells, transient calcium phosphate transfection, membranes
[1] = cloned rat MCH1 receptor, 0.08 nM [3H] Compound A, Peakr293 cell membranes, read-out: Ki (nM) rMCH1

Chain of rat MCH-1 (P97639 whole entry): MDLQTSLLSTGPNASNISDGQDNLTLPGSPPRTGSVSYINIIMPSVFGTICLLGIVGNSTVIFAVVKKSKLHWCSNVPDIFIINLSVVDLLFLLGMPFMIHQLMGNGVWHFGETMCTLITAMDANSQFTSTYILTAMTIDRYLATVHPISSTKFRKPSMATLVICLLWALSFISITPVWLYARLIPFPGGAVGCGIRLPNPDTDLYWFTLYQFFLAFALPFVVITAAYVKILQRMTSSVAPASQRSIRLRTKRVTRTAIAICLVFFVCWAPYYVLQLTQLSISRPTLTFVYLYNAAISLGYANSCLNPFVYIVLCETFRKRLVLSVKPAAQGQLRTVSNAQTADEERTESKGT

Compound	Ki [1] [nM]	Ki [nM]
CC(C)C(=O)Nc1cccc(C2CCN(CCCC/C(=N\Nc3ccc(OC(F)(F)F)cc3)c3ccc([N+](=O)[O-])cc3)CC2)c1 [Example 780]	64.3	–
CC1=C(C(=O)NCCCN2CCC(c3cccc(NC(=O)C(C)C)c3)CC2)C(c2ccc(F)c(F)c2)CC(=O)N1 (centres unmarked) [Example 795]	51.1	–
CC1=C(C(=O)NCCCN2CCC(c3cccc(NC(=O)C(C)C)c3)CC2)C(c2ccc(F)cc2F)CC(=O)N1 (centres unmarked) [Example 796]	43	–
CCC(=O)Nc1ccc(C2CCN(CCCc3c(-c4ccccc4)n(-c4ccccc4)c4ccccc34)CC2)cc1 [Example 798]	475	–
CCC(=O)Nc1ccc(C2CCN(CCC(c3ccccc3)c3ccccc3)CC2)cc1 [Example 799]	371	–
CC(C)C(=O)Nc1cccc(C2CCN(CCCCc3ccc([N+](=O)[O-])cc3)CC2)c1 [Example 800]	9.9	–
CC(C)C(=O)Nc1cccc(C2CCN(CCC(c3ccccc3)c3ccccc3)CC2)c1 [Example 802]	36.7	–
COc1ccc(CCCN2CCC(c3cccc(NC(=O)C(C)C)c3)CC2)cc1OC [Example 803]	299	–
CC(C)C(=O)Nc1cccc(C2CCN(Cc3ccc(C(C)(C)C)cc3)CC2)c1 [Example 806]	14.1	–
CC(C)C(=O)Nc1cccc(C2CCN(CCCCC(O)c3ccc(C(F)(F)F)cc3)CC2)c1 (centres unmarked) [Example 810]	191	–
CC(C)C(=O)Nc1cccc(C2CCN(CCCCCCC(O)c3ccccc3F)CC2)c1 (centres unmarked) [Example 812]	245	–
CC(C)C(=O)Nc1cccc(C2CCN(CCCCCC(O)c3cccc(F)c3)CC2)c1 (centres unmarked) [Example 813]	57.3	–
CC(C)C(=O)Nc1cccc(C2CCN(CCCCC(O)c3cccc(F)c3)CC2)c1 (centres unmarked) [Example 815]	127	–
CC(C)C(=O)Nc1cccc(C2CCN(CCCCC(O)c3cccc(Cl)c3)CC2)c1 (centres unmarked) [Example 816]	89.6	–
CC(C)C(=O)Nc1cccc(C2CCN(CCCCCC(O)c3ccc(F)cc3)CC2)c1 (centres unmarked) [Example 817]	34.9	–
CC(C)C(=O)Nc1cccc(C2CCN(CCCCCC(O)c3ccc(Cl)cc3)CC2)c1 (centres unmarked) [Example 818]	38.2	–
CC(C)C(=O)Nc1cccc(C2CCN(CCCCC(O)c3ccc(Cl)cc3)CC2)c1 (centres unmarked) [Example 819]	80.2	–
CCCC(=O)Nc1ccc(C2CCN(Cc3ccc4c(c3)c3ccccc3n4CC)CC2)cc1 [Example 820]	109	–
CCC(=O)Nc1cccc(C2CCN(Cc3ccc4c(c3)c3ccccc3n4CC)CC2)c1 [Example 821]	12.1	–

Compound	Ki [1] [nM]	Ki [nM]
CCn1c2ccccc2c2cc(CN3CCC(c4cccc(NC(=O)C5CC5)c4)CC3)ccc21 [Example 823]	2.7	–
CCn1c2ccccc2c2cc(CN3CCC(c4cccc(N5CCCC5=O)c4)CC3)ccc21 [Example 824]	36.5	–
CC(C)C(=O)Nc1ccc(C2CCN(CCCCCn3ccc4ccccc43)CC2)cc1 [Example 825]	601	–
CCCC(=O)Nc1ccc(C2CCN(CCCCCn3ccc4ccccc43)CC2)cc1 [Example 826]	786	–
CCC(=O)Nc1ccc(C2CCN(CCCCCn3ccc4ccccc43)CC2)cc1 [Example 827]	215	–
CCC(=O)Nc1ccc(C2CCN(CCCCCCn3ccc4ccccc43)CC2)cc1 [Example 828]	516	–
CC(C)C(=O)Nc1cccc(C2CCN(Cc3cccc4[nH]ccc34)CC2)c1 [Example 830]	–	469
CC(C)C(=O)Nc1ccc(C2CCN(CCCCCCn3ccc4ccccc43)CC2)cc1 [Example 831]	570	–
COc1ccc(-n2ccc3cc(CN4CCC(c5cccc(NC(=O)C(C)C)c5)CC4)ccc32)cc1 [Example 833]	27.5	–
COC(=O)c1ccc(-n2ccc3c(CN4CCC(c5cccc(NC(=O)C(C)C)c5)CC4)cccc32)cc1 [Example 834, METHYL 4-[4-({4-[3-(ISOBUTYRYLAMINO)PHENYL]-1-PIPERIDINYL)METHYL)-1H-INDOL-1-YL]BENZOATE]	38.3	–
Cc1cccc(-n2ccc3cc(CN4CCC(c5cccc(NC(=O)C(C)C)c5)CC4)ccc32)c1 [Example 835]	21.3	–
CC(C)C(=O)Nc1cccc(C2CCN(Cc3ccc4c(ccn4-c4ccc(Cl)cc4)c3)CC2)c1 [Example 838]	11.2	–
COc1cccc(-n2ccc3cc(CN4CCC(c5cccc(NC(=O)C(C)C)c5)CC4)ccc32)c1 [Example 839]	62.2	–
CCCC(=O)Nc1ccc(C2CCN(CCCCn3ccc4ccccc43)CC2)cc1 [Example 840]	663	–
CC(C)C(=O)Nc1cccc(C2CCN(Cc3ccc4c(ccn4-c4cccc(Cl)c4)c3)CC2)c1 [Example 842]	15.8	–
COC(=O)c1ccccc1-n1ccc2cc(CN3CCC(c4cccc(NC(=O)C(C)C)c4)CC3)ccc21 [Example 843, METHYL 2-[5-({4-[3-(ISOBUTYRYLAMINO)PHENYL]-1-PIPERIDINYL}METHYL)-1H-INDOL-1-YL]BENZOATE]	15.5	–
CC(C)C(=O)Nc1cccc(C2CCN(Cc3ccc4c(ccn4-c4ccc(C(F)(F)F)cc4)c3)CC2)c1 [Example 845]	43.1	–
Cc1ccc(-n2ccc3cc(CN4CCC(c5cccc(NC(=O)C(C)C)c5)CC4)ccc32)cc1 [Example 848]	19.1	–
CC(C)C(=O)Nc1cccc(C2CCN(Cc3ccc4c(ccn4-c4cccc(C(F)(F)F)c4)c3)CC2)c1 [Example 850]	9.5	–

The remaining lines, values ahead:

Ki [1] [nM]	Ki [nM]	Compound
26.5	–	CC(C)C(=O)Nc1cccc(C2CCN(CCCC/C(=N\Nc3ccccc3)c3ccc([N+](=O)[O-])cc3)CC2)c1 [Example 778]
7.6	–	Cc1cccc2c(CCCN3CCC(c4cccc(NC(=O)C(C)C)c4)CC3)c(-c3ccc([N+](=O)[O-])cc3)[nH]c12 [Example 779]
7.6	–	CC(C)C(=O)Nc1cccc(C2CCN(CCCc3c(-c4ccccc4Br)[nH]c4c3ccc3ccccc34)CC2)c1 [Example 781]
18.1	–	CC(C)C(=O)Nc1cccc(C2CCN(CCCc3c(-c4ccccc4Br)[nH]c4ccc(OC(F)(F)F)cc34)CC2)c1 [Example 782]
18	–	Cc1cccc2c(CCCN3CCC(c4cccc(NC(=O)C(C)C)c4)CC3)c(-c3ccccc3Br)[nH]c12 [Example 783]
121	–	CC(C)C(=O)Nc1cccc(C2CCN(CCCc3c(-c4ccccc4Br)n(-c4ccccc4)c4ccccc34)CC2)c1 [Example 784]
22.7	–	Cc1ccc2[nH]c(-c3ccccc3Br)c(CCCN3CCC(c4cccc(NC(=O)C(C)C)c4)CC3)c2c1 [Example 785]
19.7	–	CC(C)C(=O)Nc1cccc(C2CCN(CCCc3c(-c4ccccc4I)[nH]c4ccc(OC(F)(F)F)cc34)CC2)c1 [Example 786]
21.6	–	Cc1ccc2[nH]c(-c3ccccc3I)c(CCCN3CCC(c4cccc(NC(=O)C(C)C)c4)CC3)c2c1 [Example 787]
11.1	–	CC(C)C(=O)Nc1cccc(C2CCN(CCCc3c(-c4ccc([N+](=O)[O-])cc4)n(C)c4ccccc34)CC2)c1 [Example 788]
36.4	–	CC(C)C(=O)Nc1cccc(C2CCN(CCCc3c(-c4ccc([N+](=O)[O-])cc4)n(-c4ccccc4)c4ccccc34)CC2)c1 [Example 789]
4.4	–	CC(C)C(=O)Nc1cccc(C2CCN(CCCc3c(-c4ccccc4I)[nH]c4ccccc34)CC2)c1 [Example 790]
12.7	–	CC(C)C(=O)Nc1cccc(C2CCN(CCCc3c(-c4ccccc4I)[nH]c4c3ccc3ccccc34)CC2)c1 [Example 791]
122	–	CC(C)C(=O)Nc1cccc(C2CCN(CCCc3c(-c4ccccc4I)n(-c4ccccc4)c4ccccc34)CC2)c1 [Example 792]
16.3	–	Cc1cccc2c(CCCN3CCC(c4cccc(NC(=O)C(C)C)c4)CC3)c(-c3ccccc3I)[nH]c12 [Example 793]
4.9	–	CC(C)C(=O)Nc1cccc(C2CCN(CCCc3c(-c4ccccc4Br)n(C)c4ccccc34)CC2)c1 [Example 794]
42.4	–	COc1ccc(CCCCN2CCC(c3cccc(NC(=O)C(C)C)c3)CC2)cc1 [Example 797]
311	–	CC(C)C(=O)Nc1cccc(C2CCN(CCc3cccc4ccccc34)CC2)c1 [Example 801]

Ki [1] [nM]	Ki [nM]	Compound
89.2	–	CC(C)C(=O)Nc1cccc(C2CCN(CCCc3ccccc3)CC2)c1 [Example 804]
904	–	CC(C)C(=O)Nc1cccc(C2CCN(CCCc3ccncc3)CC2)c1 [Example 805]
2.7	–	CC(C)C(=O)Nc1cccc(C2CCN(Cc3ccc(C(=O)c4ccccc4)cc3)CC2)c1 [Example 807]
10.8	–	CC(C)C(=O)Nc1cccc(C2CCN(CC[C@H](Oc3ccc(Cl)c(Cl)c3)c3ccccc3)CC2)c1 [Example 808]
56.8	–	CC(C)C(=O)Nc1cccc(C2CCN(CCCCCC(O)c3ccccc3F)CC2)c1 (centres unmarked) [Example 809]
191	–	CC(C)C(=O)Nc1cccc(C2CCN(CCCCC(O)c3ccc(F)cc3)CC2)c1 (centres unmarked) [Example 811]
159	–	CC(C)C(=O)Nc1cccc(C2CCN(CCCCC(O)c3ccccc3F)CC2)c1 (centres unmarked) [Example 814]
1	–	Cc1cc(CN2CCC(c3cccc(NC(=O)C(C)C)c3)CC2)cc2c3ccccc3n(C)c12 [Example 822]
228	–	CC(C)C(=O)Nc1cccc(C2CCN(Cc3cc4ccccc4n3C)CC2)c1 [Example 829]
614	–	CC(C)C(=O)Nc1cccc(C2CCN(Cc3cccc4cc[nH]c34)CC2)c1 [Example 832]
7.8	–	CC(C)C(=O)Nc1cccc(C2CCN(Cc3cccc4c3ccn4-c3ccc(F)cc3)CC2)c1 [Example 836]
35.9	–	CC(C)C(=O)Nc1cccc(C2CCN(CCCCn3ccc4ccccc43)CC2)c1 [Example 837]
25	–	COc1ccccc1-n1ccc2cc(CN3CCC(c4cccc(NC(=O)C(C)C)c4)CC3)ccc21 [Example 841]
37.8	–	CC(C)C(=O)Nc1cccc(C2CCN(CCCn3ccc4ccccc43)CC2)c1 [Example 844]
18.4	–	CC(C)C(=O)Nc1cccc(C2CCN(Cc3ccc4c(ccn4-c4ccccc4-c4ccccc4)c3)CC2)c1 [Example 846]
10.2	–	Cc1ccccc1-n1ccc2cc(CN3CCC(c4cccc(NC(=O)C(C)C)c4)CC3)ccc21 [Example 847]
9.4	–	CC(C)C(=O)Nc1cccc(C2CCN(Cc3ccc4c(ccn4-c4ccccc4Cl)c3)CC2)c1 [Example 849]
27.4	–	CC(C)C(=O)Nc1cccc(C2CCN(Cc3ccc4c(ccn4-c4ccccc4[N+](=O)[O-])c3)CC2)c1 [Example 851]
